Results taken from paper PMC3760808, “A New Approach to Control the Enigmatic Activity of Aldose Reductase” (PLoS ONE, 2013).
Each block holds one compound with its values, some of them ahead of it.

How the values were obtained:
purified bovine lens AR [1] = target: T1, purified bovine lens AR (Bos taurus, UniProt P16116); assay: AR inhibition screening with GAL and HNE as substrates (differential inhibition); assay type: biochemical; conditions: for inhibitory action on all the tested substrates (in words): substrates GAL, HNE, glucose (and GS-HNE), Figure 4; for GAL/HNE differential inhibition (percentage inhibition with GAL minus percentage inhibition with HNE): 0.11 mM GAL vs 0.11 mM HNE, at inhibitor concentration giving 50% inhibition or maximal concentration tested
T1 construct: AR was purified from bovine lens to electrophoretic homogeneity as described; from tissue; host or cells: bovine lens
Experimental: (§1) If not otherwise specified AR activity was determined at 37°C using 4.7 mM D, L-GAL as a substrate in 0.25 M sodium phosphate buffer pH 6.8 containing 0.38 M ammonium sulfate, 0.5 mM EDTA, and 0.2 mM NADPH. AR was purified from bovine lens to electrophoretic homogeneity as described. […] One unit of enzyme activity is the amount of enzyme that catalyzes the oxidation of 1 µmol of NADPH/min under the above-mentioned conditions. The k cat values were obtained on the basis of a molecular weight of AR of 34 KDa. The purified enzyme was stored at 4°C in a 10 mM sodium phosphate buffer pH 7.0 supplemented by 2 mM dithiothreitol and was extensively dialyzed against a 10 mM sodium phosphate buffer pH 7.0 before use.
The nominal concentrations of HNE and GS-HNE solutions used as substrates of AR were determined through a colorimetric assay. […] When testing inhibitors that require DMSO to be solubilized, the same concentration of DMSO (0.7% v/v), was used in the assays both in the presence and absence of the inhibitors.
Thus, the susceptibility of AR to the inhibition exerted by a series of compounds (including some well-known ARIs) was tested at various inhibitor concentrations, using both GAL and HNE as substrates. The results of this screening (Figure 2) are expressed as ”GAL/HNE differential inhibition”, i.e. the difference between the percentage inhibition observed using GAL as a substrate and the percentage inhibition observed using HNE as a substrate. This differential inhibition was calculated at the concentration of the inhibitor leading to 50% inhibition or, when 50% inhibition was not reached, at the maximal concentration tested.
Bars indicate the difference between the percentage inhibition observed using 0.11 mM GAL as substrate and the percentage inhibition using 0.11 mM HNE (differential inhibition). The difference was calculated at the concentration of the inhibitor leading to a 50% inhibition of the reaction more sensitive to the inhibitor (i.e. the reduction of GAL for compounds displaying a positive differential inhibition and the reduction HNE for compounds displaying a negative differential inhibition) or at the maximal concentration tested if 50% inhibition was not reached. […] Framed numbers (1 to 30) refer to the compounds tested as inhibitors.

purified bovine lens AR [2] = target: T1, purified bovine lens AR; assay: AR inhibition with D-glucose as substrate; assay type: biochemical
Experimental: as §1
(§2) The nominal concentrations of HNE and GS-HNE solutions used as substrates of AR were determined through a colorimetric assay. These values were confirmed by the total decrease in absorbance at 340 nm measured, in the presence of 0.2 mM NADPH, when HNE and GS-HNE were incubated in the presence of 8 and 150 mU of AR, respectively (Figure S1). When testing inhibitors that require DMSO to be solubilized, the same concentration of DMSO (0.7% v/v), was used in the assays both in the presence and absence of the inhibitors.
Figure 3 Effect of D-glyceramide as differential AR inhibitor. Percentage residual activity was determined at various inhibitor concentrations using the following substrates: 0.11 mM of HNE (squares), GAL (diamonds), GS-HNE (circles) or 7 mM D-glucose (triangles). Error bars represent the standard deviations from at least three independent measurements.
Figure 5 Effect of compounds acting as differential AR inhibitors. Percentage residual activity was determined at various inhibitor concentrations using the following substrates: 0.11 mM HNE (squares), GAL (diamonds), GS-HNE (circles) or 7 mM D-glucose (triangles). Panels a and b refer to compounds 18 and 19, respectively. Error bars represent the standard deviations from at least three completely independent measurements including different enzyme preparations. […]

purified bovine lens AR [3] = target: T1, purified bovine lens AR; assay: AR inhibition with GS-HNE as substrate; assay type: biochemical
Experimental: as §1, with “The purified enzyme was stored at 4°C in a 10 mM sodium phosphate buffer pH 7.0 supplemented by 2 mM dithiothreitol and was extensively dialyzed against a 10 mM sodium phosphate buffer pH 7.0 before use.” left out
The nominal concentrations of HNE and GS-HNE solutions used as substrates of AR were determined through a colorimetric assay. These values were confirmed by the total decrease in absorbance at 340 nm measured, in the presence of 0.2 mM NADPH, when HNE and GS-HNE were incubated in the presence of 8 and 150 mU of AR, respectively (Figure S1). […]
Figure 3 Effect of D-glyceramide as differential AR inhibitor. Percentage residual activity was determined at various inhibitor concentrations using the following substrates: 0.11 mM of HNE (squares), GAL (diamonds), GS-HNE (circles) or 7 mM D-glucose (triangles). […]
Figure 5 Effect of compounds acting as differential AR inhibitors. Percentage residual activity was determined at various inhibitor concentrations using the following substrates: 0.11 mM HNE (squares), GAL (diamonds), GS-HNE (circles) or 7 mM D-glucose (triangles). […]

bovine lens AR = target: T2, bovine lens AR (Bos taurus, UniProt P16116); assay: Kinetic parameters of substrate reduction by AR (double reciprocal plots); assay type: biochemical; conditions: 8 mU purified AR, pH 6.8, 37°C
T2 construct: AR was purified from bovine lens to electrophoretic homogeneity as described; from tissue; host or cells: bovine lens
Experimental: as §1, §2
Figure 1 Double reciprocal plots for reduction of GAL, HNE and GS-HNE by bovine lens AR. Double reciprocal plots of initial rate measurements using of GAL (diamonds), HNE (squares) and GS-HNE (circles) as substrates. The assays were performed in standard conditions using 8 mU of purified AR. Error bars represent the standard deviations from at least three independent measurements.

AR from bovine lens = test system: AR from bovine lens; parameters: method as in PMID 8554593, PMID 9445372; conditions: pH 6.0; cited from earlier work
AR from bovine heart = test system: AR from bovine heart; parameters: method as in PMID 8554593, PMID 9445372; conditions: pH 6.0; cited from earlier work
human skeletal muscle AR = test system: human skeletal muscle AR; parameters: method as in PMID 9890881, PMID 7599164; conditions: human skeletal muscle enzyme; cited from earlier work
[4] = test system: human placental recombinant AR; parameters: method as in PMID 9890881, PMID 7599164; conditions: human placental recombinant enzyme; cited from earlier work

SMILES: O=c1cc(-c2ccccc2)nc2cccc(O)n12 [Compound 3]
- inhibitory action on all the tested substrates (in words) (purified bovine lens AR [1]): inhibits the AR catalyzed reduction of all the tested substrates

SMILES: NC(=O)[C@H](O)CO [Compound 21, D-Glyceramide]
- IC50 (purified bovine lens AR [1]; GAL as substrate, read-out: IC50 with GAL as substrate): ~10 mM
- differential inhibition glucose/HNE (in words) (purified bovine lens AR [2]; 7 mM D-glucose vs 0.11 mM HNE, Figure 3): observed only at rather high concentrations
- IC50 (purified bovine lens AR [3]; 0.11 mM GS-HNE as substrate, read-out: IC50, reduction of GS-HNE): ~8 mM

SMILES: NC(=O)[C@H](O)[C@@H](O)[C@H](O)[C@H](O)CO [Compound 26, D gluconamide, reference compound]
- GAL/HNE differential inhibition (percentage inhibition with GAL minus percentage inhibition with HNE) (purified bovine lens AR [1]): significant
- effect on glucose reduction (purified bovine lens AR [2]; data not shown): no effect

SMILES: O=C[C@@H](O)CO [GAL, D, L-glyceraldehyde]
- Km (bovine lens AR): 39 ± 4 µM
- k cat (bovine lens AR): 0.783 ± 0.05 s⁻¹

SMILES: CCCCCC(O)C(CC=O)SC[C@H](NC(=O)CC[C@H](N)C(=O)O)C(=O)NCC(=O)O (stereo partly drawn) [GS-HNE, 3-glutathionyl-4-hydroxy-nonanal]
- Km (bovine lens AR): 105 ± 6 µM
- k cat (bovine lens AR): 0.683 ± 0.033 s⁻¹

SMILES: CCCCCC(O)/C=C/C=O (stereo not drawn) [HNE, 4-hydroxy-2,3-nonenal]
- Km (AR from bovine lens): 8.8 ± 0.9 µM
- Km (bovine lens AR): 37 ± 1 µM
- k cat (bovine lens AR): 0.8 ± 0.017 s⁻¹
- Km (AR from bovine heart): 7 ± 2 µM
- Km (human skeletal muscle AR): 22 µM
- Km [4]: 28 ± 9 µM

The next lines start with results.

- type of inhibition, glucose reduction (purified bovine lens AR [2]; 47 µM inhibitor, double reciprocal plots): competitive inhibition
- inhibition of the AR catalyzed reduction of GS-HNE (in words) (purified bovine lens AR [3]; 0.11 mM GS-HNE, Figure 5): able to inhibit, to a different extent
SMILES: O=C(O)c1cn(Cc2ccccc2)c2ccnn2c1=O [Compound 18]

- GAL/HNE differential inhibition (percentage inhibition with GAL minus percentage inhibition with HNE) (purified bovine lens AR [1]): negligible
SMILES: O=C1NC(=O)[C@@]2(CCOc3ccc(F)cc32)N1 [Compound 29, Sorbinil]
- inhibitory action on all the tested substrates (in words) (purified bovine lens AR [1]): potent inhibitory action on all the tested substrates

- IC50 (purified bovine lens AR [1]): 0.0005 mM
SMILES: CC(/C=C1\SC(=S)N(CC(=O)O)C1=O)=C\c1ccccc1 [Compound 30, Epalrestat]
